According to patent US9187435B2, “Bridged Spiro[2.4]heptane ester derivatives” (Actelion Pharmaceuticals Ltd., priority 2010, dated 2015):
pEC50: −log10 of the molar value. Structures can show the parent of a compound that is named as a salt.

Target: T1, human ALX receptor (Homo sapiens, UniProt P25090)
T1 construct: expressed in transfected cells; host or cells: HEK293 (HEK293-hALXR-Gα16)
T1 sequence (P25090 1-351): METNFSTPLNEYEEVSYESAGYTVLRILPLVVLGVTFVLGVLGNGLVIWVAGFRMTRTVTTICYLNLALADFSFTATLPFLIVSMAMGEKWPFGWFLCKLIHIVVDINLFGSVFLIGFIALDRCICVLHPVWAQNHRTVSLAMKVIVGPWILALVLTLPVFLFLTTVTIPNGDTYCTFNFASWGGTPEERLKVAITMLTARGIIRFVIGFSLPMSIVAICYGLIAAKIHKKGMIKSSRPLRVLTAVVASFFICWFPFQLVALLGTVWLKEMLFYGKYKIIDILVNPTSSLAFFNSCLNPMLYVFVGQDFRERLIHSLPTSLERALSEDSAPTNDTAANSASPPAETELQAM
Assay: Intracellular calcium measurements (FLIPR) in HEK293-hALXR-Gα16 cells, agonistic activity
Format: cell-based
Settings: values normalized to WKYMVm 10 nM
Experimental: The ALX receptor and FPRL2 agonistic activities of the compounds of formula (I) are determined in accordance with the following experimental method.
Intracellular Calcium Measurements:
Cells expressing recombinant human ALX receptor and the G-protein Gα16 (HEK293-hALXR-Gα16) were grown to 80% confluency in Growing Medium (GM). Cells were detached from culture dishes with a cell dissociation buffer (Invitrogen, 13151-014), and collected by centrifugation at 1,000 rpm at rt for 5 min in Assay Buffer (AB) (equal parts of Hank's BSS (Gibco, 14065-049) and DMEM without Phenol Red (Gibco, 11880-028)). After 60 min incubation at 37° C. under 5% CO2 in AB supplemented with 1 μM Fluo-4 (AM) (Invitrogen, F14202), and 20 mM HEPES (Gibco, 15630-056), the cells were washed and resuspended in AB. They were then seeded onto 384-well FLIPR assay plates (Greiner, 781091) at 50,000 cells in 70 μl per well and sedimented by centrifugation at 1,000 rpm for 1 min. Stock solutions of test compounds were made up at a concentration of 10 mM in DMSO, and serially diluted in AB to concentrations required for activation dose response curves. WKYMVm (Phoenix Peptides) was used as a reference agonist. FLIPR384 or FLIPR Tetra instruments (Molecular Devices) were operated according to the manufacturer's standard instructions, adding 4 μl of test compound dissolved at 10 mM in DMSO and diluted prior to the experiment in assay buffer to obtain the desired final concentration. Changes in fluorescence were monitored before and after the addition of test compounds at lex=488 nm and lem=540 nm. Emission peak values above base level after compounds addition were exported after base line subtraction. Values were normalized to high-level control (WKYMVm compound, 10 nM final concentration) after subtraction of the base line value (AB addition).

pEC50 | SMILES
7.59 | CN1CCC(OC(=O)[C@H]2[C@H](C(=O)Nc3ccc(Br)nc3)[C@@H]3CC[C@H]2C32CC2)C1 (stereo partly drawn) [Example 14, (1S,2R,3R,4R)-[1-Methylpyrrolidin-3-yl 2-((6-bromopyridin-3-yl)carbamoyl)spiro[bicyclo[2.2.1]heptane-7,1′-cyclopropane]-3-carboxylate]]
6.95 | Cc1cc(CNC(=O)[C@H]2[C@H](C(=O)OCCC3CCNCC3(F)F)[C@H]3CC[C@@H]2C32CC2)on1 (stereo partly drawn) [Example 66, (1S,2R,3R,4R)-[(3,3-Difluoro-piperidin-4-yl)ethyl 2-(((3-methylisoxazol-5-yl)methyl)carbamoyl)spiro[bicyclo[2.2.1]heptane-7,1′-cyclopropane]-3-carboxylate]]
7.94 | Cc1cc(CNC(=O)[C@H]2[C@H](C(=O)OCC3CCNCC3)[C@H]3CC[C@@H]2C32CC2)on1 [Example 52, (1S,2R,3R,4R)-[(Piperidin-4-yl)methyl 2-(((3-methylisoxazol-5-yl)methyl)carbamoyl)spiro[bicyclo[2.2.1]heptane-7,1′-cyclopropane]-3-carboxylate]]
6.52 | COCCOC(=O)[C@H]1[C@H](C(=O)Nc2ccc(Br)nc2)[C@@H]2CC[C@H]1C21CC1 [Example 7, (1S,2R,3R,4R)-[2-Methoxyethyl 2-((6-bromopyridin-3-yl)carbamoyl)spiro[bicyclo[2.2.1]heptane-7,1′-cyclopropane]-3-carboxylate]]
7.10 | Cc1cc(CNC(=O)[C@H]2[C@H](C(=O)OCCC3CCCNC3)[C@H]3CC[C@@H]2C32CC2)no1 (stereo partly drawn) [Example 17, (1S,2R,3R,4R)-[2-(Piperidin-3-yl)ethyl 2-(((5-methylisoxazol-3-yl)methyl)carbamoyl)spiro[bicyclo[2.2.1]heptane-7,1′-cyclopropane]-3-carboxylate]hydrochloride]
8.00 | O=C(OCCOCCN1CC[C@H](F)C1)[C@H]1[C@H](C(=O)Nc2ccc(Br)nc2)[C@@H]2CC[C@H]1C21CC1 [Example 48, (1S,2R,3R,4R)-[(S)-2-(2-(3-Fluoropyrrolidin-1-yl)ethoxy)ethyl 2-((6-bromopyridin-3-yl)carbamoyl)spiro[bicyclo[2.2.1]heptane-7,1′-cyclopropane]-3-carboxylate]]
6.09 | CCCOC(=O)[C@H]1[C@H](C(=O)NCc2cc(C)on2)[C@@H]2CC[C@H]1C21CC1 [Example 30, (1S,2R,3R,4R)-[Propyl 2-(((5-methylisoxazol-3-yl)methyl)carbamoyl)spiro[bicyclo[2.2.1]heptane-7,1′-cyclopropane]-3-carboxylate]]
6.10 | Cc1cc(CNC(=O)[C@H]2[C@H](C(=O)OC3CCCC3)[C@H]3CC[C@@H]2C32CC2)no1 [Example 29, (1S,2R,3R,4R)-[Cyclopentyl 2-(((5-methylisoxazol-3-yl)methyl)carbamoyl)spiro[bicyclo[2.2.1]heptane-7,1′-cyclopropane]-3-carboxylate]]
8.51 | O=C(OCCC1CCCNC1)[C@H]1[C@H](C(=O)Nc2ccc(Br)nc2)[C@@H]2CC[C@H]1C21CC1 (stereo partly drawn) [Example 10, (1S,2R,3R,4R)-[2-(Piperidin-3-yl)ethyl 2-((6-bromopyridin-3-yl)carbamoyl)spiro[bicyclo[2.2.1]heptane-7,1′-cyclopropane]-3-carboxylate]hydrochloride]
7.06 | Cc1cc(CNC(=O)[C@H]2[C@H](C(=O)OCC3CCCNC3)[C@H]3CC[C@@H]2C32CC2)no1 (stereo partly drawn) [Example 18, (1S,2R,3R,4R)-[Piperidin-3-ylmethyl 2-(((5-methylisoxazol-3-yl)methyl)carbamoyl)spiro[bicyclo[2.2.1]heptane-7,1′-cyclopropane]-3-carboxylate]hydrochloride]
8.85 | O=C(OCCN1CCNCC1)[C@H]1[C@H](C(=O)Nc2ccc(Br)nc2)[C@@H]2CC[C@H]1C21CC1 [Example 37, (1S,2R,3R,4R)-[2-(piperazin-1-yl)ethyl 2-((6-bromopyridin-3-yl)carbamoyl)spiro[bicyclo[2.2.1]heptane-7,1′-cyclopropane]-3-carboxylate]dihydrochloride]
7.98 | Cc1cc(CNC(=O)[C@H]2[C@H](C(=O)OCCC3(F)CCNCC3)[C@H]3CC[C@@H]2C32CC2)on1 [Example 49, (1S,2R,3R,4R)-[2-(4-Fluoro-piperidin-4-yl)ethyl 2-(((3-methylisoxazol-5-yl)methyl)carbamoyl)spiro[bicyclo[2.2.1]heptane-7,1′-cyclopropane]-3-carboxylate]]
8.03 | NCc1cccc(COC(=O)[C@H]2[C@H](C(=O)Nc3ccc(Br)nc3)[C@@H]3CC[C@H]2C32CC2)c1 [Example 45, (1S,2R,3R,4R)-[3-(Aminomethyl)benzyl 2-((6-bromopyridin-3-yl)carbamoyl)spiro[bicyclo[2.2.1]heptane-7,1′-cyclopropane]-3-carboxylate]]
6.13 | Cc1cc(CNC(=O)[C@H]2[C@H](C(=O)OCC(C)C)[C@H]3CC[C@@H]2C32CC2)no1 [Example 28, (1S,2R,3R,4R)-[Isobutyl 2-(((5-methylisoxazol-3-yl)methyl)carbamoyl)spiro[bicyclo[2.2.1]heptane-7,1′-cyclopropane]-3-carboxylate]]
7.82 | O=C(OC1CCNCC1)[C@H]1[C@H](C(=O)Nc2ccc(Br)nc2)[C@@H]2CC[C@H]1C21CC1 [Example 2, (1S,2R,3R,4R)-[Piperidin-4-yl 2-((6-bromopyridin-3-yl)carbamoyl)spiro[bicyclo[2.2.1]heptane-7,1′-cyclopropane]-3-carboxylate]]
7.46 | Cc1cc(CNC(=O)[C@H]2[C@H](C(=O)OC3CCN(C)C3)[C@H]3CC[C@@H]2C32CC2)no1 (stereo partly drawn) [Example 15, (1S,2R,3R,4R)-[1-Methylpyrrolidin-3-yl 2-(((5-methylisoxazol-3-yl)methyl)carbamoyl)spiro[bicyclo[2.2.1]heptane-7,1′-cyclopropane]-3-carboxylate]]
6.66 | CN1CCCCC1COC(=O)[C@H]1[C@H](C(=O)Nc2ccc(Br)nc2)[C@@H]2CC[C@H]1C21CC1 (stereo partly drawn) [Example 22, (1S,2R,3R,4R)-[1-Methyl-piperidin-2-ylmethyl 2-((6-bromopyridin-3-yl)carbamoyl)spiro[bicyclo[2.2.1]heptane-7,1′-cyclopropane]-3-carboxylate]]
8.66 | O=C(OCCOCCN1CCCC1)[C@H]1[C@H](C(=O)Nc2ccc(Br)nc2)[C@@H]2CC[C@H]1C21CC1 [Example 31, (1S,2R,3R,4R)-[2-(2-(Pyrrolidin-1-yl)ethoxy)ethyl 2-((6-bromopyridin-3-yl)carbamoyl)spiro[bicyclo[2.2.1]heptane-7,1′-cyclopropane]-3-carboxylate]]
7.95 | Cc1cc(CNC(=O)[C@H]2[C@H](C(=O)OCC3(F)CCNCC3)[C@H]3CC[C@@H]2C32CC2)on1 [Example 51, (1S,2R,3R,4R)-[(4-Fluoro-piperidin-4-yl)methyl 2-(((3-methylisoxazol-5-yl)methyl)carbamoyl)spiro[bicyclo[2.2.1]heptane-7,1′-cyclopropane]-3-carboxylate]]
7.48 | O=C(O[C@@H]1CCNC[C@H]1F)[C@H]1[C@H](C(=O)Nc2ccc(Br)nc2)[C@@H]2CC[C@H]1C21CC1 (relative stereo) [Example 57, (1S,2R,3R,4R)-[(trans-3-Fluoro-piperidin-4-yl) 2-((6-bromopyridin-3-yl)carbamoyl)spiro[bicyclo[2.2.1]heptane-7,1′-cyclopropane]-3-carboxylate]]
7.30 | Cc1cc(CNC(=O)[C@H]2[C@H](C(=O)OC3CCNCC3(F)F)[C@H]3CC[C@@H]2C32CC2)on1 (stereo partly drawn) [Example 61, (1S,2R,3R,4R)-[(3,3-Difluoro-piperidin-4-yl) 2-(((3-methylisoxazol-5-yl)methyl)carbamoyl)spiro[bicyclo[2.2.1]heptane-7,1′-cyclopropane]-3-carboxylate]]
7.55 | O=C(OC1CCNCC1(F)F)[C@H]1[C@H](C(=O)Nc2ccc(Br)nc2)[C@@H]2CC[C@H]1C21CC1 (stereo partly drawn) [Example 56, (1S,2R,3R,4R)-[(3,3-Difluoro-piperidin-4-yl) 2-((6-bromopyridin-3-yl)carbamoyl)spiro[bicyclo[2.2.1]heptane-7,1′-cyclopropane]-3-carboxylate]]

SMILES | pEC50
CN1CCC(OC(=O)[C@H]2[C@H](C(=O)Nc3ccc(Br)nc3)[C@@H]3CC[C@H]2C32CC2)CC1 [Example 6, (1S,2R,3R,4R)-[1-Methylpiperidin-4-yl 2-((6-bromopyridin-3-yl)carbamoyl)spiro[bicyclo[2.2.1]heptane-7,1′-cyclopropane]-3-carboxylate]] | 6.59
